From patent publication US7582627B2, “3-aminoquinazolin-2,4-dione antibacterial agents” (Warner-Lambert Company, priority 2000, dated 2009)
Values after ≈ are worked out from the molar mass of the structure shown. Counter-ions that a name gives are not always drawn. Like-named read-outs stand apart in the source and are kept apart here.

Key:
E. coli gyrase = target: T1, E. coli gyrase (Escherichia coli, UniProt P0AES4+P0AES6); test: DNA gyrase supercoiling inhibition assay; assay type: biochemical
T1 construct: purchased Lucent, Ltd., Leicester, UK
Method: The effects of invention compounds on the activity of DNA gyrase is determined in the supercoiling inhibition assay, following reaction conditions recommended by the enzyme supplier (Lucent, Ltd., Leicester, UK). Reactions are performed in buffer G (35 mM Tris-HCl (pH 7.5), 24 mM KCl, 4 mM MgCl2, 2 mM DTT, 1.8 mM spermidine, 1 mM ATP, 0.1 mg/mL bovine serum albumin). Relaxed plasmid pBR322 (0.25 μg, Lucent, Ltd., Leicester, UK) is reacted with 1 U E. coli gyrase (Lucent, Ltd., Leicester, UK), in the absence or presence of test compounds, for 30 minutes at 37° C. Reactions are stopped by the addition of SDS and proteinase K to respective final concentrations of 1% and 0.5 mg/mL. After an additional 30 minutes at 37° C., one-tenth volume of 10× loading buffer (0.3% bromophenol blue, 16% Ficoll, 10 mM Na2HPO4) is added, and reactions are loaded onto agarose gels and electrophoresed. The concentration of representative invention compounds of Formula I inhibiting 50% of the supercoiling activity of DNA gyrase is given as an IC50 and recorded in Table 2.

E. coli B90 = test: Antibacterial assay, microtitration MIC; assay type: cell-based; conditions: for MIC: Escherichia coli
Method: (§1) The compounds of the present invention are tested against an assortment of Gram negative and Gram positive organisms using standard microtitration techniques (Cohen et al., Antimicrob. Agents Chemother., 1985; 28:766; Heifetz et al., Antimicrob. Agents Chemother., 1974; 6:124). The results of the evaluation of representative 3-aminoquinazolin-2,4-diones of Formula I are shown in Table 2 and compared to two 3-hydroxyquinazolin-2,4-diones.

E. faecalis RB1 = test: Antibacterial assay, microtitration MIC; assay type: cell-based; conditions: for MIC: Enterococcus faecalis
Method: as §1

E. coli MC4100 = test: Antibacterial assay, microtitration MIC; assay type: cell-based; conditions: for MIC: Escherichia coli
Method: as §1

S. aureus 29213 = test: Antibacterial assay, microtitration MIC; assay type: cell-based
Method: as §1

S. pyogenes C203 = test: Antibacterial assay, microtitration MIC; assay type: cell-based; conditions: for MIC: Streptococcus pyogenes
Method: as §1

E. coli Tol C = test: Antibacterial assay, microtitration MIC; assay type: cell-based; conditions: for MIC: Escherichia coli, read-out: Minimum Inhibitory Concentrations E. coli Tol C
Method: as §1

S. pyogenes = test: In vivo median protective dose, lethal systemic infection; conditions: mice
Method: (§2) The in vivo activity of invention compounds is evaluated according to the procedure of Miller et al., Proc. Soc. Exp. Biol. Med, 1944; 57:261. The median protective dose (PD50) is determined in mice given lethal systemic infections. Two 3-aminoquinazolin-2,4-diones of the invention are compared to a […], and the results are presented in Table 3. The results establish the unexpected superiority of the 3-amino invention compounds compared to similar 3-hydroxy analogs.

S. aureus 2554 = test: Cross resistance antibacterial assay, microtitration MIC; assay type: cell-based; conditions: Staphylococcus aureus, 2554, read-out: Minimum Inhibitory Concentrations S. aureus 2554
Method: (§3) The compounds of the present invention are tested against an assortment of ciprofloxacin resistant E. coli and S. aureus organisms described below using standard microtitration techniques (Cohen, et al., Antimicrob. Agents Chemother., 1985; 28:766; Heifetz, et al., Antimicrob. Agents Chemother., 1974; 6:124).

S. aureus UC-76 = test: as above; assay type: cell-based; conditions: Staphylococcus aureus, UC76; typical sensitive laboratory strain (wild type); read-out: Minimum Inhibitory Concentrations S. aureus UC-76
Method: as §3

S. aureus 2552 = test: as above; assay type: cell-based; conditions: Staphylococcus aureus, read-out: Minimum Inhibitory Concentrations S. aureus 2552
Method: as §3

E. coli JL4 = test: as above; assay type: cell-based; conditions: Escherichia coli, Tol C pump deficient strain with E. coli W3110 background, read-out: Minimum Inhibitory Concentrations E. coli JL4
Method: as §3

E. coli LLM1 = test: as above; assay type: cell-based; conditions: Escherichia coli, LLM1, read-out: Minimum Inhibitory Concentrations E. coli LLM1
Method: as §3

S. aureus 2558 = test: as above; assay type: cell-based; conditions: Staphylococcus aureus, 2558, read-out: Minimum Inhibitory Concentrations S. aureus 2558
Method: as §3

E. coli = test: In vivo median protective dose, lethal systemic infection; conditions: mice
Method: as §2

[1] = supercoiling of relaxed pBR322, 30 minutes at 37° C., read-out: E. coli gyrase IC50
[2] = B90, read-out: Minimum Inhibitory Concentrations E. coli B90
[3] = RB1, read-out: Minimum Inhibitory Concentrations E. faecalis RB1
[4] = MC4100, read-out: Minimum Inhibitory Concentrations E. coli MC4100
[5] = Staphylococcus aureus, 29213, read-out: Minimum Inhibitory Concentrations S. aureus 29213
[6] = C203, read-out: Minimum Inhibitory Concentrations S. pyogenes C203
[7] = B90, Gram negative, read-out: Minimum Inhibitory Concentrations E. coli B90
[8] = RB1, Gram positive, read-out: Minimum Inhibitory Concentrations E. faecalis RB1
[9] = MC4100, Gram negative, read-out: Minimum Inhibitory Concentrations E. coli MC4100
[10] = Staphylococcus aureus, 29213, Gram positive, read-out: Minimum Inhibitory Concentrations S. aureus 29213
[11] = C203, Gram positive, read-out: Minimum Inhibitory Concentrations S. pyogenes C203

T1 sequence (P0AES4 whole entry, one chain of several): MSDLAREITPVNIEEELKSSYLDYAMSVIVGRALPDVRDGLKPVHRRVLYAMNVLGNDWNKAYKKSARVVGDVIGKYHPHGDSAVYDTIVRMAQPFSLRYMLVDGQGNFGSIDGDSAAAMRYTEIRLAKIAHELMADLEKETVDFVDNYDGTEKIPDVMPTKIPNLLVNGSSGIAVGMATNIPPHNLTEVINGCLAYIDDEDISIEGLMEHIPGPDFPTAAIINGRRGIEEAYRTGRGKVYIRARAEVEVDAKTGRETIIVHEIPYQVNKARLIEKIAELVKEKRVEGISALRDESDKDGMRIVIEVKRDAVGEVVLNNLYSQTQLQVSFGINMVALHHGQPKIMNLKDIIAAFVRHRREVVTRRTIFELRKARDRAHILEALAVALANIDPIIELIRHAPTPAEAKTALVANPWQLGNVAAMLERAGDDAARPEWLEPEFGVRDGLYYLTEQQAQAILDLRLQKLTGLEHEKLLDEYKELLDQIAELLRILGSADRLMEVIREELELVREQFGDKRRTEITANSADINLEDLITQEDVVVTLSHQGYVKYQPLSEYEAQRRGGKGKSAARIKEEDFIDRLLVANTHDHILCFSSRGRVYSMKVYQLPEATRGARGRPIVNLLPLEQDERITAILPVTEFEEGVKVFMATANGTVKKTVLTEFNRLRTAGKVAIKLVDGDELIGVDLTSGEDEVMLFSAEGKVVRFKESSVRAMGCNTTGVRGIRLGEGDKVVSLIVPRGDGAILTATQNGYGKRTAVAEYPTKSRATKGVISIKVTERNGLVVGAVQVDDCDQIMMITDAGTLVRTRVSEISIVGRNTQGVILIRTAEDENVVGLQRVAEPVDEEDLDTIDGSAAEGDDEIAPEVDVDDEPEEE

| Compound | IC50 (E. coli gyrase; [1]) | MIC (E. coli Tol C) | MIC (S. aureus 2554) | MIC (S. aureus UC-76) | MIC (S. aureus 2552) | MIC (E. coli JL4) | MIC (E. coli LLM1) | MIC (S. aureus 2558) | MIC (E. coli B90; [7]) | MIC (E. faecalis RB1; [8]) | MIC (E. coli MC4100; [9]) | MIC (S. aureus 29213; [10]) | MIC (S. pyogenes C203; [11]) | further results |
| --- | --- | --- | --- | --- | --- | --- | --- | --- | --- | --- | --- | --- | --- | --- |
| NCC1CCN(c2c(F)cc3c(=O)n(N)c(=O)n(C4CC4)c3c2Cl)C1 (stereo not shown) [Compound 1, 3-Amino-7-(3-aminomethylpyrrolidin-1-yl)-8-chloro-1-cyclopropyl-6-fluoro-1H-quinazoline-2,4-dione hydrochloride] | 1000 nM | 0.25 µg/mL | 1 µg/mL | 0.13 µg/mL | 1 µg/mL | 0.13 µg/mL | 0.5 µg/mL | 1 µg/mL |  |  |  |  |  | MIC (E. coli B90; [2]): 1 µg/mL; MIC (E. faecalis RB1; [3]): 1 µg/mL; MIC (E. coli MC4100; [4]): 2 µg/mL; MIC (S. aureus 29213; [5]): 0.5 µg/mL; MIC (S. pyogenes C203; [6]): 0.13 µg/mL; PD50 (S. pyogenes): 12 mg/kg |
| CC1(CN)CCN(c2c(F)cc3c(=O)n(N)c(=O)n(C4CC4)c3c2Cl)C1 (stereo not shown) [Compound 3, 3-Amino-7-[3-(aminomethyl)-3-methylpyrrolidin-1-yl]-8-chloro-1-cyclopropyl-6-fluoro-1H-quinazoline-2,4-dione hydrochloride] |  |  | 2 µg/mL | 1 µg/mL | 2 µg/mL | 0.5 µg/mL | 1 µg/mL | 4 µg/mL |  |  |  |  |  |  |
| Cl.N[C@H]1CCN(c2c(F)cc3c(=O)n(N)c(=O)n(NC4CC4)c3c2F)C1 [Compound 7, 3-Amino-7-[(S)-3-aminopyrrolidin-1-yl]-1-cyclopropylamino-6,8-difluoro-1H-quinazoline-2,4-dione hydrochloride] | 1300 nM |  |  |  |  |  |  |  |  |  |  |  |  | Minimum Inhibitory Concentrations E. coli B90 (E. coli B90; Gram negative): 0.5 µg/mL; Minimum Inhibitory Concentrations E. faecalis RB1 (E. faecalis RB1; Gram positive): 8.0 µg/mL; Minimum Inhibitory Concentrations E. coli MC4100 (E. coli MC4100; Gram negative): 2.0 µg/mL; Minimum Inhibitory Concentrations S. aureus 29213 (S. aureus 29213; Gram positive): 8.0 µg/mL; Minimum Inhibitory Concentrations S. pyogenes C203 (S. pyogenes C203; Gram positive): 4.0 µg/mL; Minimum Inhibitory Concentrations E. coli Tol C (E. coli Tol C; Gram negative): 0.25 µg/mL |
| N[C@H]1CCN(c2c(F)c(F)c3c(=O)n(N)c(=O)n(C4CC4)c3c2F)C1 [Compound 9, 3-Amino-7-((S)-3-aminopyrrolidin-1-yl)-1-cyclopropyl-5,6,8-trifluoro-1H-quinazoline-2,4-dione hydrochloride] | 3000 nM | 0.5 µg/mL |  |  |  |  |  |  |  |  |  |  |  | MIC (E. coli B90; [2]): 1 µg/mL; MIC (E. faecalis RB1; [3]): 32 µg/mL; MIC (E. coli MC4100; [4]): 2 µg/mL; MIC (S. aureus 29213; [5]): 16 µg/mL; MIC (S. pyogenes C203; [6]): 16 µg/mL |
| Cl.NC1CCN(c2c(F)cc3c(=O)n(N)c(=O)n(C4CC4)c3c2Cl)C1 (stereo not shown) [Compound 10, 3-Amino-7-(3-aminopyrrolidin-1-yl)-8-chloro-1-cyclopropyl-6-fluoro-1H-quinazoline-2,4-dione hydrochloride] |  |  |  |  |  |  |  |  |  |  |  |  |  | PD50 (E. coli): 72 mg/kg |
| Nc1c(F)c(N2CC[C@H](N)C2)c(F)c2c1c(=O)n(N)c(=O)n2C1CC1 [Compound 11, 7-((S)-3-Aminopyrrolidin-1-yl)-1-cyclopropyl-3,5-diamino-6,8-difluoro-1H-quinazoline-2,4-dione hydrochloride] | 11000 nM | 0.25 µg/mL |  |  |  |  |  |  |  |  |  |  |  | MIC (E. coli B90; [2]): 0.5 µg/mL; MIC (E. faecalis RB1; [3]): 8 µg/mL; MIC (E. coli MC4100; [4]): 2 µg/mL; MIC (S. aureus 29213; [5]): 8 µg/mL; MIC (S. pyogenes C203; [6]): 4 µg/mL |
| Cl.Nn1c(=O)c2cc(F)c(N3CCC(CO)C3)c(Cl)c2n(C2CC2)c1=O (stereo not shown) [Compound 12, 3-Amino-7-(3-hydroxymethylpyrrolidin-1-yl)-8-chloro-1-cyclopropyl-6-fluoro-1H-quinazoline-2,4-dione hydrochloride] |  | 0.13 µg/mL | 1 µg/mL | 1 µg/mL | 1 µg/mL | 0.06 µg/mL | 0.25 µg/mL | 2 µg/mL | 0.25 µg/mL | 4 µg/mL | 16 µg/mL | 2 µg/mL | 8 µg/mL | IC50 (E. coli gyrase): 2100 nM; melting point: 78 to 80 °C |
| Cl.N[C@@H]1CN(c2c(F)cc3c(=O)n(N)c(=O)n(C4CC4)c3c2Cl)CC12CC2 [Compound 14, 3-Amino-7-((S)-7-amino-5-azaspiro[2.4]hept-5-yl)-8-chloro-1-cyclopropyl-6-fluoro-1H-quinazoline-2,4-dione hydrochloride] |  | 0.5 µg/mL |  |  |  |  |  |  | 0.25 µg/mL | 8 µg/mL | 4 µg/mL | 8 µg/mL | 4 µg/mL | IC50 (E. coli gyrase): 2400 nM; melting point: 177 to 179 °C |
| N[C@@H]1[C@H]2CN(c3cc4c(cc3F)c(=O)n(O)c(=O)n4C3CC3)C[C@@H]12 [drawing 284, reference compound] | 900 nM | 0.25 µg/mL (≈ 0.752 µM) |  |  |  |  |  |  | 0.25 µg/mL (≈ 0.752 µM) | 4 µg/mL (≈ 12 µM) | 1 µg/mL (≈ 3.01 µM) | 4 µg/mL (≈ 12 µM) | 2 µg/mL (≈ 6.02 µM) |  |
| N[C@@H]1[C@H]2CN(c3cc4c(cc3F)c(=O)n(O)c(=O)n4C3CC3)C[C@@H]12 [drawing 286, reference compound] |  |  |  |  |  |  |  |  |  |  |  |  |  | PD50 (S. pyogenes): >100 mg/kg |
| N[C@@H]1[C@H]2CN(c3cc4c(cc3F)c(=O)n(O)c(=O)n4C3CC3)C[C@@H]12 [drawing 287, reference compound] |  |  | 32 µg/mL (≈ 96.3 µM) | 4 µg/mL (≈ 12 µM) | 32 µg/mL (≈ 96.3 µM) | 0.25 µg/mL (≈ 0.752 µM) | 4 µg/mL (≈ 12 µM) | > 64 µg/mL |  |  |  |  |  |  |
| O=c1c2cc(F)c(N3C[C@@H]4CCCN[C@@H]4C3)cc2n(C2CC2)c(=O)n1O [reference compound] | 5000 nM | 1 µg/mL (≈ 2.77 µM) |  |  |  |  |  |  | 2 µg/mL (≈ 5.55 µM) | 64 µg/mL (≈ 178 µM) | 8 µg/mL (≈ 22.2 µM) | 32 µg/mL (≈ 88.8 µM) | 32 µg/mL (≈ 88.8 µM) |  |
| N[C@H]1CCN(c2cc3c(cc2F)c(=O)n(O)c(=O)n3C2CC2)C1 [reference compound] |  |  | > 64 µg/mL | 4 µg/mL (≈ 12.5 µM) | > 64 µg/mL | 0.5 µg/mL (≈ 1.56 µM) | 2 µg/mL (≈ 6.24 µM) | > 64 µg/mL |  |  |  |  |  |  |
